Experiment: Solubility/stability of CTA-acid salts in water
Assay type: physicochemical
Conditions: CTA-acid dispersed in water at 1 wt. %, dissolved by adding the base/amine; solubility checked again after 48 hrs. at room temperature
Procedure: These new CTA-“bases” were made using the same procedure shown above (“Formation of CTA-Acid Salt(s)”) starting with CTA-acid. The stability of several amines was tested by dispersing CTA-acid in water at 1 wt. % CTA-acid, and then dissolution by adding the amine.

Row | Compound | Soluble
1 | NCCOCCOCCN | no
2 | CC(C)CCCCCCCCCOCCCN | no
3 | O=C1CCCN1CCO | no
4 | NCCOCCO | yes
5 | NCCNCCO | yes

From patent US10280101B2, “Water soluble chain transfer agents” (The Lubrizol Corporation, priority 2015, dated 2019)
